Results published in publication PMC11433283, “Sulfated Aeruginosins from Lake Kinneret: Microcystis Bloom, Isolation, Structure Elucidation, and Biological Activity” (Marine Drugs, 2024).

Target: T1, serine protease trypsin (Bos taurus, UniProt P00760)
T1 construct: purchased Sigma-Aldrich T1426
T1 sequence (P00760 24-246): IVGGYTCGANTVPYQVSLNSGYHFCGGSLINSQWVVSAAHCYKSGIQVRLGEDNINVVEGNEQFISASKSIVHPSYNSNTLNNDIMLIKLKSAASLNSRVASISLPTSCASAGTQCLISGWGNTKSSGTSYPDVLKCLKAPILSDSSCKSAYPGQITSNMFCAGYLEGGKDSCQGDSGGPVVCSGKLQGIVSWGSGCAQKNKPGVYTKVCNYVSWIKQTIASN
Experiment: Trypsin inhibition (protease inhibition assay, BAPNA substrate)
Assay type: biochemical
Details: for IC50: Tris buffer (50 mM Tris-HCl, 100 mM NaCl, 1 mM CaCl2, pH 7.5), 37 °C, 5 min pre-incubation, absorbance 405 nm, kinetic over 10 min; for IC50 values for trypsin compared with those of aeruginosins KT608A and KT608B: comparison with literature values of KT608A and KT608B [19]
Experimental: The samples for biological assays were dissolved in ethanol at a concentration of 1 mg/mL and further diluted with Tris buffer to the desired concentrations. The samples were tested for inhibition of trypsin (Cat# T1426, Sigma-Aldrich, St. Louis, MO, USA). The assay was performed in a Tris buffer (50 mM Tris-HCl, 100 mM NaCl, and 1 mM CaCl2 at pH 7.5). Benzoyl-L-arginine-p-nitroanilide hydrochloride (BAPNA Cat# 03,310 Chem-Impex Int’l Inc., Wood Dale, IL, USA), the trypsin substrate was dissolved at 1 mg/mL in 1:9 EtOH/buffer. The enzyme was dissolved in a buffer at 1 mg/mL. To each well were added 100 µL of buffer, 10 µL of enzyme, and 10 µL of sample. The plate was placed in the spectrophotometer at 37 °C. After 5 min, 100 µL of substrate solution was added to each well, and the plate was placed in the spectrophotometer for the kinetic measurement of the absorbance intensity over 10 min at a wavelength of 405 nm.

| Molecule | IC50 (BAPNA substrate) | IC50 values for trypsin compared with those of aeruginosins KT608A and KT608B | Inhibition of trypsin (inactive at tested concentration) (at a concentration of 1.7 mM, BAPNA substrate, pH 7.5, 37 °C, 405 nm) |
| --- | --- | --- | --- |
| N=C(N)NCCCCNC(=O)[C@@H]1C[C@@H]2CC[C@@H](OS(=O)(=O)O)C[C@@H]2N1C(=O)[C@@H](Cc1ccccc1)NC(=O)[C@@H](O)Cc1ccc(O)cc1 [Aeruginosin KT688, L-Hpla-D-Phe-L-Choi-6-sulfate-agmatine] | 2380 nM | comparable with those of aeruginosins KT608A and KT608B | – |
| N=C(N)NCCCCNC(=O)[C@@H]1C[C@@H]2CC[C@@H](OS(=O)(=O)O)C[C@@H]2N1C(=O)[C@H](CCc1ccc(O)cc1)NC(=O)[C@@H](O)Cc1ccc(O)cc1 [Aeruginosin KT718, L-Hpla-L-Hty-L-Choi-6-sulfate-Agm] | 1430 nM | comparable with those of aeruginosins KT608A and KT608B | – |
| 6-Cl-Hpla-7-sulfate-2-Ile-Choi-amide [Aeruginosin KT575] | – | – | inactive |
